Experimental data as given in patent US12331046B2, “CTPS1 inhibitors and uses thereof” (Nimbus Clotho, Inc., priority 2020, dated 2025).

What follows are molecules tested against human CTPS1 (Homo sapiens (Human), UniProt P17812) (assay: hCTPS1 biochemical assay (ADP-Glo)). Details: hCTPS1 25 nM, ATP 120 uM, UTP 160 uM, GTP 60 uM, L-Glutamine 100 uM, 25 degrees C.
Chain of human CTPS1 (P17812 whole entry): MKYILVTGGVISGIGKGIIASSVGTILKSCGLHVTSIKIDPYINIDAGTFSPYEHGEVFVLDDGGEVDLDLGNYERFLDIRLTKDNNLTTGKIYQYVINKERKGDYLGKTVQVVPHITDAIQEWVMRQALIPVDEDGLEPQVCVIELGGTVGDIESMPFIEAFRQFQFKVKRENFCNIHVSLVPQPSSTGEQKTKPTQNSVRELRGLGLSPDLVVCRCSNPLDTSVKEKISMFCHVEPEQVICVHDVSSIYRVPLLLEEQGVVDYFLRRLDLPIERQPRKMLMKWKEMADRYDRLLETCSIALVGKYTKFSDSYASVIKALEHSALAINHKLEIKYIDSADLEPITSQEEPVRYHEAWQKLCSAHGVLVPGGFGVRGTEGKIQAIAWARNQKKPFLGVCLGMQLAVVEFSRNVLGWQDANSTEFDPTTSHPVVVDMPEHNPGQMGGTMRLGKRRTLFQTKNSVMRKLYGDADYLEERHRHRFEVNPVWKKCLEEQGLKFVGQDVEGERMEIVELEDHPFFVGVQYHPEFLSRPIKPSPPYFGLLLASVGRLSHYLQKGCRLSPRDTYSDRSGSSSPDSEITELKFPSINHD
`CCOc1cncc(-c2ccc(C(=O)NCc3cc(NS(=O)(=O)C(F)(F)F)ccn3)nc2)n1` [I-23, 5-(6-ethoxypyrazin-2-yl)-N-((4-((trifluoromethyl)sulfonamido)pyridin-2-yl)methyl) picolinamide] was tested, and the IC50 was less than 100 nM. `CC[C@H](NC(=O)c1ncc(-c2cnn3ccc(Cl)cc23)s1)c1cc(NS(=O)(=O)C2CC2)ccn1` [I-150, (S)-5-(5-chloropyrazolo[1,5-a]pyridin-3-yl)-N-(1-(4-(cyclopropanesulfonamido)pyridin-2-yl)propyl)thiazole-2-carboxamide] showed an IC50 of less than 100 nM. Work on `CCOc1cncc(-c2cnc(C(=O)NC(CN3CC(F)C3)c3cc(NS(=O)(=O)C4CC4)ccn3)s2)n1` (stereo not drawn) [I-216] yielded an IC50 of less than 100 nM. With `CCOc1cncc(-c2cnc(C(=O)N[C@H](C[C@H]3CCCCN3)c3cc(NS(=O)(=O)C4CC4)ccn3)s2)n1` [I-172, N—((R)-1-(4-(cyclopropanesulfonamido)pyridin-2-yl)-2-((R)-piperidin-2-yl)ethyl)-5-(6-ethoxypyrazin-2-yl)thiazole-2-carboxamide] the IC50 was less than 100 nM. Molecule `CCOc1cncc(-c2cnc(C(=O)NC(CCN3CCC3)c3cc(NS(=O)(=O)C4CC4)ccn3)s2)n1` (stereo not drawn) [I-182, N-(3-(azetidin-1-yl)-1-(4-(cyclopropanesulfonamido)pyridin-2-yl)propyl)-5-(6-ethoxypyrazin-2-yl)thiazole-2-carboxamide] has an IC50 of no less than 1000 nM. For `CCOc1cncc(N2CCN(C(=O)NCc3cc(NS(=O)(=O)C4CC4)ccn3)CC2)n1` [I-27], the IC50 was 100 to 1000 nM. Work on `CCOc1cncc(-n2cnc(C(=O)N3CCC[C@@H]3c3ccnc(NS(=O)(=O)C4CC4)n3)c2)n1` [I-275, N-[4-[(2R)-1-[1-(6-ethoxypyrazin-2-yl)imidazole-4-carbonyl]pyrrolidin-2-yl]pyrimidin-2-yl]cyclopropanesulfonamide] yielded an IC50 of no less than 1000 nM. For `O=C(NCc1cc(NS(=O)(=O)C2CC2)ccn1)c1ncc(-c2cnn3cccc3c2)s1` [I-200, N-((4-(cyclopropanesulfonamido)pyridin-2-yl)methyl)-5-(pyrrolo[1,2-b]pyridazin-3-yl)thiazole-2-carboxamide], the IC50 was 100 to 1000 nM. Work on `CCOc1cncc(-c2cnc(C(=O)N[C@H](c3cc(NS(=O)(=O)C4CC4)ccn3)[C@@H]3CCOC3)s2)n1` (single isomer, unassigned) [I-94] yielded an IC50 of less than 100 nM. `Cc1cn2cc(-c3ccc(C(=O)NCc4cc(NS(=O)(=O)C5CC5)ccn4)nc3)cnc2n1` [I-31] showed an IC50 of no less than 1000 nM. For `CCOc1cncc(-c2ccc(NC(=O)Cc3cc(NS(=O)(=O)C4CC4)ccn3)nc2)n1` [I-40, 2-(4-(cyclopropanesulfonamido)pyridin-2-yl)-N-(5-(6-ethoxypyrazin-2-yl)pyridin-2-yl)acetamide], the IC50 was less than 100 nM. With `CCOc1cncc(-c2cnc(C(=O)NC(CN(C)C)c3cc(NS(=O)(=O)C4CC4)ccn3)s2)n1` (stereo not drawn) [I-241] the IC50 was less than 100 nM. For `Cc1cc2c(=O)[nH]c3ccc(C(=O)NCc4cc(NS(=O)(=O)C5CC5)ccn4)cc3n2c1` [I-162], the IC50 was 100 to 1000 nM. For `CCOc1cncc(-c2cnc(C(=O)NC(CCCN)c3cc(NS(=O)(=O)C4CC4)ccn3)s2)n1` (stereo not drawn) [I-166, N-(4-amino-1-(4-(cyclopropanesulfonamido)pyridin-2-yl)butyl)-5-(6-ethoxypyrazin-2-yl)thiazole-2-carboxamide], the IC50 was less than 100 nM. In the case of `CCOc1cncc(-c2cnc(C(=O)NCc3cc(NS(=O)(=O)C4CC4)ccn3)s2)c1` [I-242, N-((4-(cyclopropanesulfonamido)pyridin-2-yl)methyl)-5-(5-ethoxypyridin-3-yl)thiazole-2-carboxamide], the IC50 is reported as less than 100 nM. In the case of `CCOc1cncc(-c2cnc(C(=O)N[C@H](C[C@H]3CCCCN3C)c3cc(NS(=O)(=O)C4CC4)ccn3)s2)n1` [I-145, N—((R)-1-(4-(cyclopropanesulfonamido)pyridin-2-yl)-2-((R)-1-methylpiperidin-2-yl)ethyl)-5-(6-ethoxypyrazin-2-yl)thiazole-2-carboxamide], the IC50 is reported as less than 100 nM. In the case of `CC[C@@H](NC(=O)c1ncc(-c2cnn3ccc(Cl)cc23)s1)c1cc(NS(=O)(=O)C2CC2)ccn1` [I-151, (R)-5-(5-chloropyrazolo[1,5-a]pyridin-3-yl)-N-(1-(4-(cyclopropanesulfonamido)pyridin-2-yl)propyl)thiazole-2-carboxamide], the IC50 is reported as less than 100 nM. Molecule `CCOc1cncc(-c2cnc(C(=O)N[C@H](CN3CCC3)c3cc(NS(=O)(=O)C4CC4)ccn3)s2)n1` (single isomer, unassigned) [I-222] has an IC50 of less than 100 nM. `CCOc1cncc(-c2cnc(C(=O)N[C@H](CN3CCCCC3)c3cc(NS(=O)(=O)C4CC4)ccn3)s2)n1` (single isomer, unassigned) [I-213] was tested, and the IC50 was less than 100 nM. For `CCOc1cncc(-c2cnc(C(=O)N[C@@H](CN3[C@H](C)COC[C@@H]3C)c3cc(NS(=O)(=O)C4CC4)ccn3)s2)n1` (single isomer, unassigned) [I-109], the IC50 was less than 100 nM. `O=C(NC1(c2csc(NS(=O)(=O)C3CC3)n2)CC1)c1ccc2cccnc2c1` [I-10, N-(1-(2-(cyclopropanesulfonamido)thiazol-4-yl)cyclopropyl)quinoline-7-carboxamide] gave an IC50 of no less than 1000 nM. With `CCOc1cncc(-c2cnc(C(=O)NCc3cc(F)c(F)c(NS(=O)(=O)C4CC4)c3)s2)n1` [I-255, N-[(3-cyclopropanesulfonamido-4,5-difluorophenyl)methyl]-5-(6-ethoxypyrazin-2-yl)-1,3-thiazole-2-carboxamide] the IC50 was no less than 1000 nM. `O=C(NC1(c2csc(NS(=O)(=O)C3CC3)n2)CC1)c1ccc2ncccc2c1` [I-9, N-(1-(2-(cyclopropanesulfonamido)thiazol-4-yl)cyclopropyl)quinoline-6-carboxamide] showed an IC50 of no less than 1000 nM. `CCOc1cncc(-c2ccc3c(c2)CN(C(CC)c2csc(NS(=O)(=O)C4CC4)n2)C3=O)n1` (stereo in doubt) [I-12, (R)—N-(4-(1-(5-(6-ethoxypyrazin-2-yl)-1-oxoisoindolin-2-yl)propyl)thiazol-2-yl)cyclopropanesulfonamide] gave an IC50 of less than 100 nM. In the case of `CCOc1cncc(-c2cnc(C(=O)N[C@H](CCN3CC[C@H](F)C3)c3cc(NS(=O)(=O)C4CC4)ccn3)s2)n1` [I-126, N—((R)-1-(4-(cyclopropanesulfonamido)pyridin-2-yl)-3-((S)-3-fluoropyrrolidin-1-yl)propyl)-5-(6-ethoxypyrazin-2-yl)thiazole-2-carboxamide], the IC50 is reported as less than 100 nM. Molecule `CCOc1cncc(-c2cnc(C(=O)N[C@H](CN3CCOCC3(C)C)c3cc(NS(=O)(=O)C4CC4)ccn3)s2)n1` (single isomer, unassigned) [I-117] has an IC50 of less than 100 nM. Work on `CCOc1cncc(-c2cnc(C(=O)N3CCN(C)CC3c3cc(NS(=O)(=O)C4CC4)ccn3)s2)n1` (stereo not drawn) [I-218, N-(2-(1-(5-(6-ethoxypyrazin-2-yl)thiazole-2-carbonyl)-4-methylpiperazin-2-yl)pyridin-4-yl)cyclopropanesulfonamide] yielded an IC50 of 100 to 1000 nM. For `CCOc1cncc(-c2cnc(C(=O)N[C@H](CN3CCN(C(C)C)CC3)c3cc(NS(=O)(=O)C4CC4)ccn3)s2)n1` (single isomer, unassigned) [I-121], the IC50 was less than 100 nM. `CCOc1cncc(-c2cnc(C(=O)NC(CN3CCC3)c3cc(NS(=O)(=O)C4CC4)ccn3)s2)n1` (stereo not drawn) [I-228] showed an IC50 of less than 100 nM. For `CCOc1cncc(-c2sc(C(=O)NC(CC)c3cc(NS(=O)(=O)C4CC4)ccn3)nc2C)n1` (stereo not drawn) [I-227], the IC50 was less than 100 nM. With `CCOc1cncc(-c2cnc(C(=O)N[C@@H](C[C@@H]3CCCCN3)c3cc(NS(=O)(=O)C4CC4)ccn3)s2)n1` (single isomer, unassigned) [I-139] the IC50 was less than 100 nM. `CCOc1cncc(-c2ccc(C(=O)NCc3cc(NS(=O)(=O)C4CC4)ccn3)nc2)n1` [I-16] was tested, and the IC50 was less than 100 nM. With `O=C(NCc1cc(NS(=O)(=O)C2CC2)ccn1)c1ncc(-c2cncc(Cl)c2)s1` [I-252] the IC50 was less than 100 nM. With `CCC[C@@H]1CCN1c1ncc(C(=O)NCc2cc(NS(=O)(=O)C3CC3)ccn2)nc1C` [I-60, (R)—N-((4-(cyclopropanesulfonamido)pyridin-2-yl)methyl)-6-methyl-5-(2-propylazetidin-1-yl)pyrazine-2-carboxamide] the IC50 was no less than 1000 nM. With `CCOc1cncc(-c2ncc(C(=O)N3CCC[C@@H]3c3cccc(NS(=O)(=O)C(F)F)c3)s2)n1` [I-74, N-[3-[(2R)-1-[2-(6-ethoxypyrazin-2-yl)-1,3-thiazole-5-carbonyl]pyrrolidin-2-yl]phenyl]-1,1-difluoromethanesulfonamide] the IC50 was less than 100 nM. With `CCOc1cncc(-c2cnc(C(=O)N3CCNC[C@H]3c3ccnc(NS(=O)(=O)C4CC4)n3)s2)n1` [I-168, (S)—N-(4-(1-(5-(6-ethoxypyrazin-2-yl)thiazole-2-carbonyl)piperazin-2-yl)pyrimidin-2-yl)cyclopropanesulfonamide] the IC50 was 100 to 1000 nM. With `O=C(NC1(c2csc(NS(=O)(=O)C3CC3)n2)CC1)c1ccc2ccccc2c1` [I-1, N-(1-(2-(cyclopropanesulfonamido)thiazol-4-yl)cyclopropyl)-2-naphthamide] the IC50 was 100 to 1000 nM. `CCOc1cncc(-c2cnc(C(=O)N[C@@H](c3cc(NS(=O)(=O)C4CC4)ccn3)C3CCN(C)CC3)s2)n1` [I-147, (R)—N-((4-(cyclopropanesulfonamido)pyridin-2-yl)(1-methylpiperidin-4-yl)methyl)-5-(6-ethoxypyrazin-2-yl)thiazole-2-carboxamide] gave an IC50 of less than 100 nM. With `CCOc1cncc(-c2ccc(C(=O)NC3(c4cccc(NS(=O)(=O)C(F)F)c4)CC3)c(F)c2)n1` [I-267, N-[1-[3-(difluoromethanesulfonamido)phenyl]cyclopropyl]-4-(6-ethoxypyrazin-2-yl)-2-fluorobenzamide] the IC50 was less than 100 nM. In the case of `CCOc1cncc(-c2cnc(C(=O)NCc3cc(F)cc(NS(=O)(=O)C4CC4)c3F)s2)n1` [I-250, N-[(3-cyclopropanesulfonamido-2,5-difluorophenyl)methyl]-5-(6-ethoxypyrazin-2-yl)-1,3-thiazole-2-carboxamide], the IC50 is reported as less than 100 nM. With `CCOc1cncc(-c2cnc(C(=O)N[C@@H](CC)c3cc(NS(=O)(=O)C4CC4)ccn3)s2)n1` [I-278] the IC50 was less than 100 nM. For `CCOc1cncc(-c2cnc(C(=O)N3CCNC[C@@H]3c3cc(NS(=O)(=O)C4CC4)ccn3)s2)n1` [I-212, (R)—N-(2-(1-(5-(6-ethoxypyrazin-2-yl)thiazole-2-carbonyl)piperazin-2-yl)pyridin-4-yl)cyclopropanesulfonamide], the IC50 was less than 100 nM.
